Like-named read-outs stand apart in the source and are kept apart here. Non-standard residues stand in square brackets, D forms with d. Residues, ends and D or L forms follow the SMILES beside them. Tle = CC(C)(C)[C@H](N)C(=O)O; Dab = NCC[C@H](N)C(=O)O; Aib = CC(C)(N)C(=O)O
Tests used:
[1] = target: T1, human PSD95-PDZ2 (Homo sapiens, UniProt P78352); assay: binding ELISA with Biotin-PDZ2
T1 construct: PDZ2 (155-249, the Flag-His-Avitag-TEVsite tag is italicized); made in house; host or cells: E. coli BL21-DE3 (PET vector)
From the text: The three PDZ domains in the PSD95 protein are structurally similar. Binding to the PDZ1 and PDZ2 domains can effectively block PSD95-mediated neuroexcitotoxicity. However, the biological function of binding to the PDZ3 domain is unclear. Therefore, to avoid potential safety concerns, this test example assessed the selectivity of polypeptide compounds for the PDZ2 and PDZ3 domains, aiming to identify polypeptide compounds that specifically bind to the PDZ2 domain. Site-specifically biotinylated Biotin-PDZ2 and Biotin-PDZ3 proteins were used for binding ELISA assays. […] After the blocking was complete, the blocking solution was discarded, and the plate was washed three times with PBST buffer. […] After the incubation was complete, the reaction solutions in the microplate were discarded, and the plate was washed three times with PBST. 100 µL of HRP-SA secondary antibody (diluted at 1:2000) was added to each well, and the plate was incubated at 37 °C for 1 h. After the plate was washed three times with PBST, 100 µL of TMB chromogenic substrate was added. […] The absorbance at 450 nm was measured using a SpectraMax M5 microplate reader, and the binding EC50 values of the test compounds to Biotin-PDZ2 or Biotin-PDZ3 were calculated using GraphPad Prism 9. […] The abilities of polypeptide compounds to bind to human PSD95-PDZ2 and human PSD95-PDZ3

[2] = system: rabbit whole blood; assay: hemolysis risk test in rabbit whole blood; assay type: cell-based; details: concentration range of 1 to 50 µM
Experimental: Preparation of red blood cell suspension: 100 µL of fresh whole blood was collected, and 900 µL of 1× PBS solution was then added. The mixture was shaken on a plate shaker at 30 rpm for 5 min and then centrifuged at 1000 g for 5 min, and the supernatant was discarded. The above washing step was repeated until the supernatant no longer appeared red. The suspension was set aside for later use.
Preparation of test polypeptide solutions: An appropriate amount of 1× PBS solution was added to a powdered polypeptide, and the polypeptide was dissolved to form a standard stock solution. The stock solution was then diluted with 1× PBS to form test solutions with concentrations of 1, 3, 10, 30, 100, and 300 µg/mL, and two replicate wells were set for each concentration. Meanwhile, blank 1× PBS was used as a negative control, and a 1× PBS solution containing 0.1% Triton X-100 was used as a positive control.
Incubation: A test solution (500 µL) was added to the red blood cell suspension, and then the mixture was well shaken on a plate shaker at 30 rpm for 5 min, incubated at 37 °C for 1 h, and centrifuged at 1000 g for 5 min.
100 µL of the supernatant was transferred to a single well of a microplate. The absorbance at 540 nm was measured using a SpectraMax M5 microplate reader, and data analysis was performed using GraphPad Prism 9. The hemolysis rate (%) was calculated using the formula: (test sample absorbance - negative control absorbance) / (positive control absorbance - negative control absorbance) × 100%. A rate of less than 5% indicates the absence of hemolysis, while a rate of greater than 5% indicates the presence of hemolysis. Table 3. Testing of the hemolysis risk of the polypeptide compound
A method similar to that in section 3.3.2 was adopted, with the difference being that this test example used fresh rabbit whole blood instead.

[3] = plasma stability test, rat plasma; assay type: in vitro ADME
Experimental: Solution preparation: An appropriate amount of a test polypeptide compound was weighed out and dissolved in an appropriate amount of 1× PBS to form a 1 mM test solution. NA-1 and NoNO42 were used as positive drugs, propantheline bromide was used as a human plasma test control, and lovastatin was used as a rat plasma test control. Plasma stability test: 12.5 µL of the 1 mM test solution was added to a 495 µL pre-incubated plasma sample. […] For each incubation time, two parallel samples were set. Subsequently, 200 µL of stop solution was added to stop the incubation, and the mixtures were vortexed for 5 min. Then the mixtures were centrifuged at 10,000 rpm at 4 °C for 10 min to remove the protein in the sample, and 70 µL of the supernatant was transferred to a new 96-well plate (70 µL of water was added to each well beforehand) and well mixed. […] Sample pretreatment: […] LC-MS analysis: […] (2) Mass-spectrometric conditions: The mass spectrometry analysis used an electrospray ionization (ESI) source, a positive ion analysis mode, and a multi-reaction monitoring (MRM) scan mode. […] The plasma stability of the polypeptide compound

[4] = nephrotoxicity in rats (blood urea nitrogen, serum creatinine); assay type: in vivo, SD rats; details: for Blood urea nitrogen (BUN) levels / Serum creatinine (Crea) levels: rat serum
Experimental: With male SD rats as test animals, the nephrotoxicity of a polypeptide compound administered via single intravenous bolus injection in rats (serum) was studied.
This test was performed synchronously with Test Examples 3.6, with blood collection time points set as follows: before administration (day 0), and days 2, 4, and 7 post-administration. At each time point, 0.3 mL of blood was collected, transferred to a centrifuge tube, and left to stand at room temperature for 1 h. Then the whole blood sample was centrifuged at 4 °C at 4000 g for 5 min, and a serum sample was obtained by separation and cryopreserved at -80 °C.
The blood urea nitrogen (BUN) and serum creatinine levels at each time point were determined through commercially available kits. For blood urea nitrogen, the urease continuous monitoring method was used. For serum creatinine, the sarcosine oxidase method was used. The sample was thawed in a refrigerator at 2 to 8 °C and vortexed for thorough mixing, and 100 µL of the sample was pipetted into a sample cup. The cup was placed in the sample position of a biochemistry analyzer, and assays were performed according to the instructions of the kits. The experimental results are shown in Tables 8-1 and 8-2, FIG. 5A, and FIG. 5B.

[5] = Rat plasma, 25 µM, 0min (standard 100%)
[6] = Rat plasma, 25 µM, 10min, read-out: Relative remaining compound content (%)
[7] = Rat plasma, 25 µM, 20min, read-out: Relative remaining compound content (%)
[8] = Rat plasma, 25 µM, 30min, read-out: Relative remaining compound content (%)
[9] = Rat plasma, 25 µM, 60min, read-out: Relative remaining compound content (%)
[10] = 0.3 nmol/g, day 0 (before administration)
[11] = 1 nmol/g, day 0 (before administration)
[12] = 3 nmol/g, day 0 (before administration)

T1 sequence (P78352 155-249): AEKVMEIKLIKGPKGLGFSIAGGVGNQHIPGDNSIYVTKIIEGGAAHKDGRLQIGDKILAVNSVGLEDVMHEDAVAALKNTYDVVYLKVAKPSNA

CC[C@H](C)[C@H](NC(=O)[C@H](CO)NC(=O)[C@H](CO)NC(=O)[C@H](CC(C)C)NC(=O)[C@@H](CCCCN)NC(=O)[C@H](CCCNC(=N)N)NC(=O)[C@H](CCCNC(=N)N)NC(=O)[C@@H](CCCNC(=N)N)NC(=O)[C@H](CCC(N)=O)NC(=O)[C@@H](CCCNC(=N)N)NC(=O)[C@H](CCCNC(=N)N)NC(=O)[C@H](CCCCN)NC(=O)[C@H](CCCCN)NC(=O)[C@@H](CCCNC(=N)N)NC(=O)CNC(=O)[C@@H](N)Cc1ccc(O)cc1)C(=O)N[C@@H](CCC(=O)O)C(=O)N[C@@H](CO)C(=O)N[C@@H](CC(=O)O)C(=O)N[C@H](C(=O)O)C(C)C [NoNO42, YGrKKRrQrRRkLSSIESDV, reference compound] (H-YG[dR]KKR[dR]Q[dR]RR[dK]LSSIESDV-OH)
EC50 [1]: 98 nM
hemolysis rates [2]: less than 5%
remaining at 10 min, 25 µM ([3]; rat, plasma): 98.4%
remaining at 20 min, 25 µM ([3]; rat, plasma): 93.6%
remaining at 0.5 h, 25 µM ([3]; rat, plasma): 93.6%
remaining at 1 h, 25 µM ([3]; rat, plasma): 90.8%
remaining at 2 h, 25 µM ([3]; rat, plasma): 95%

CC(C)[C@H](NC(=O)[C@H](CC(=O)O)NC(=O)[C@@H](NC(=O)[C@@H](NC(=O)[C@@H](NC(=O)[C@@H](NC(=O)[C@H](CCN)NC(=O)C(C)(C)NC(=O)CNC(=O)[C@@H](CCCNC(=N)N)NC(=O)[C@@H](CCCNC(=N)N)NC(=O)[C@@H](CCCNC(=N)N)NC(=O)[C@@H](CCC(N)=O)NC(=O)[C@@H](CCCNC(=N)N)NC(=O)[C@@H](CCCNC(=N)N)NC(=O)[C@@H](CCCCN)NC(=O)[C@@H](CCCCN)NC(=O)[C@@H](CCCNC(=N)N)NC(=O)CNC(=O)[C@H](N)Cc1ccc(O)cc1)[C@@H](C)O)C(C)(C)C)C(C)(C)C)[C@@H](C)O)C(=O)O [Polypeptide compound 14, y-G-r-k-k-r-r-q-r-r-r-G-Aib-Dab-T-Tle-Tle-T-D-V] (H-[dY]G[dR][dK][dK][dR][dR][dQ][dR][dR][dR]G[Aib][Dab]T[Tle][Tle]TDV-OH)
EC50 ([1]; plate coated with 2 µM test compound, Biotin-PDZ2 titrated, read-out: EC50 (PDZ2)): 76 nM
hemolysis rates [2]: less than 5%
Relative remaining compound content (%) [3, 5]: 100.0%
remaining at 10 min, 25 µM [3, 6]: 105%
remaining at 20 min, 25 µM [3, 7]: 117%
remaining at 0.5 h, 25 µM [3, 8]: 107%
remaining at 1 h, 25 µM [3, 9]: 109%
remaining at 2 h, 25 µM ([3]; Rat plasma, 25 µM, 120min, read-out: Relative remaining compound content (%)): 104%
Blood urea nitrogen (BUN) levels [4, 10]: 11.8 ± 0.1 mg/dL
Serum creatinine (Crea) levels [4, 10]: 0.192 ± 0.006 mg/dL
Blood urea nitrogen (BUN) levels ([4]; 0.3 nmol/g, day 2): 13.7 ± 3.7 mg/dL
Serum creatinine (Crea) levels ([4]; 0.3 nmol/g, day 2): 0.200 ± 0.015 mg/dL
Blood urea nitrogen (BUN) levels ([4]; 0.3 nmol/g, day 4): 16.6 ± 4.6 mg/dL
Serum creatinine (Crea) levels ([4]; 0.3 nmol/g, day 4): 0.212 ± 0.024 mg/dL
Blood urea nitrogen (BUN) levels ([4]; 0.3 nmol/g, day 7): 15.3 ± 5.2 mg/dL
Serum creatinine (Crea) levels ([4]; 0.3 nmol/g, day 7): 0.205 ± 0.023 mg/dL
Blood urea nitrogen (BUN) levels [4, 11]: 14.2 ± 3.0 mg/dL
Serum creatinine (Crea) levels [4, 11]: 0.195 ± 0.013 mg/dL
Blood urea nitrogen (BUN) levels ([4]; 1 nmol/g, day 2): 15.5 ± 1.8 mg/dL
Serum creatinine (Crea) levels ([4]; 1 nmol/g, day 2): 0.203 ± 0.018 mg/dL
Blood urea nitrogen (BUN) levels ([4]; 1 nmol/g, day 4): 17.1 ± 2.7 mg/dL
Serum creatinine (Crea) levels ([4]; 1 nmol/g, day 4): 0.208 ± 0.017 mg/dL
Blood urea nitrogen (BUN) levels ([4]; 1 nmol/g, day 7): 13.7 ± 1.4 mg/dL
Serum creatinine (Crea) levels ([4]; 1 nmol/g, day 7): 0.221 ± 0.005 mg/dL
Blood urea nitrogen (BUN) levels [4, 12]: 16.3 ± 1.0 mg/dL
Serum creatinine (Crea) levels [4, 12]: 0.22 ± 0.015 mg/dL
Blood urea nitrogen (BUN) levels ([4]; 3 nmol/g, day 2): 16.2 ± 0.7 mg/dL
Serum creatinine (Crea) levels ([4]; 3 nmol/g, day 2): 0.208 ± 0.006 mg/dL
Blood urea nitrogen (BUN) levels ([4]; 3 nmol/g, day 4): 16.0 ± 2.0 mg/dL
Serum creatinine (Crea) levels ([4]; 3 nmol/g, day 4): 0.226 ± 0.012 mg/dL
Blood urea nitrogen (BUN) levels ([4]; 3 nmol/g, day 7): 14.5 ± 1.7 mg/dL
Serum creatinine (Crea) levels ([4]; 3 nmol/g, day 7): 0.233 ± 0.014 mg/dL
renal safety concerns ([4]; rats, within the tested concentration range, 7-day monitoring period): neither NA-1 nor polypeptide compound 14 caused significant renal safety concerns

CC(C)[C@H](NC(=O)[C@H](CC(=O)O)NC(=O)[C@@H](NC(=O)[C@@H](NC(=O)[C@@H](NC(=O)[C@@H](NC(=O)[C@H](CCN)NC(=O)C(C)(C)NC(=O)CNC(=O)[C@@H](CCCNC(=N)N)NC(=O)[C@H](CCCNC(=N)N)NC(=O)[C@H](CCCNC(=N)N)NC(=O)[C@H](CCC(N)=O)NC(=O)[C@@H](CCCNC(=N)N)NC(=O)[C@H](CCCNC(=N)N)NC(=O)[C@H](CCCCN)NC(=O)[C@H](CCCCN)NC(=O)[C@H](N)CCCNC(=N)N)[C@@H](C)O)C(C)(C)C)C(C)(C)C)[C@@H](C)O)C(=O)O [Polypeptide compound 22, r-K-K-R-r-Q-R-R-r-G-Aib-Dab-T-Tle-Tle-T-D-V] (H-[dR]KKR[dR]QRR[dR]G[Aib][Dab]T[Tle][Tle]TDV-OH)
hemolysis rates [2]: less than 5%
Relative remaining compound content (%) [3, 5]: 100.0%
remaining at 10 min, 25 µM [3, 6]: 116%
remaining at 20 min, 25 µM [3, 7]: 105%
remaining at 0.5 h, 25 µM [3, 8]: 110%
remaining at 1 h, 25 µM [3, 9]: 102%
Relative remaining compound content (%) ([3]; Rat plasma, 25 µM, 120min): 124.8%

From patent EP4650362A1, “NEUROPROTECTIVE PSD-95 POLYPEPTIDE INHIBITOR AND USE THEREOF” (Beijing Tuo Jie Biopharmaceutical Co. Ltd., priority 2023, dated 2024)
